The term pKa denotes the pH at which an ionisable group is half protonated.

≈ marks a conversion by molar mass, not a printed value. Residues, ends and D or L forms follow the SMILES beside them. Some results are limits rather than exact numbers.

Data set [1] deals with Staphylococcus aureus ATCC 6538 resistant to bacitracin. Kind of data set: Minimum inhibitory concentration, resistant strain (Table II). The note with it: S. aureus ATCC 6538 resistant to bacitracin. The data set is classed as cell-based. The source says:
(§1) Lipiarmycin is also active against strains which are resistant to other antibiotics which are widely used in chemotherapeutic practice. As a representative example, in the following table the minimum inhibitory concentrations (M.I.C.), γ/ml., of lipiarmycin against Staphylococcus aureus strains resistant to several antibiotics are reported.

In data set [2] the test system is Staphylococcus aureus ATCC 6538 resistant to cephaloridine. The description is as above. The data set is classed as cell-based.
Description: as §1

Data set [3] has as its system Staphylococcus aureus ATCC 6538 resistant to chloramphenicol. Described as above. In kind it is cell-based.
Description: as §1

The test system of data set [4] is Staphylococcus aureus ATCC 6538 resistant to erythromycin. Described as above. In kind it is cell-based.
Description: as §1

The test system of data set [5] is Staphylococcus aureus ATCC 6538 resistant to novobiocin. The description is as above. In kind it is cell-based.
Description: as §1

The subject of data set [6] is Staphylococcus aureus ATCC 6538 resistant to oleandomycin. The data set is described as above. In kind it is cell-based.
Description: as §1

Data set [7] has as its system Staphylococcus aureus ATCC 6538 resistant to penicillin. The description is as above. In kind it is cell-based.
Description: as §1

Data set [8] relates to Staphylococcus aureus ATCC 6538 resistant to streptomycin. The data set is described as above. In kind it is cell-based.
Description: as §1

Data set [9] has as its system Staphylococcus aureus ATCC 6538 resistant to tetracycline. Described as above. In kind it is cell-based.
Description: as §1

For data set [10], the system named is Staphylococcus aureus ATCC 6538 resistant to neomycin. The data set is described as above. The data set is classed as cell-based. Particulars: S. aureus ATCC 6538 resistant to neomycin.
Description: as §1

Data set [11] has as its system Staphylococcus aureus ATCC 6538 resistant to streptothricin. The data set is described as above. In kind it is cell-based. The note with it: S. aureus ATCC 6538 resistant to streptothricin.
Description: as §1

Data set [12] is classed as physicochemical. Particulars: methyl cellosolve. The source says:
An ionizable function is spectrophotometrically evidenced with pKa (in methyl cellosolve): 6.8

For data set [13] the following is noted: pH 7.
Data set [14] relates to Diplococcus pneumoniae UC 41. Kind of data set: Minimal inhibitory concentration. The data set is classed as cell-based. The source says: (§2) The antibiotic substance of the invention is active against bacteria, and in particular against the following microorganisms at the indicated concentrations.
In data set [15] the test system is Mycoplasma gallisepticum H 21 C.Z.B. The data set is described as follows: Minimal inhibitory concentration. The data set is classed as cell-based.
Description: as §2

Data set [16] relates to Staphylococcus aureus ATCC 6538. Kind of data set: Minimal inhibitory concentration. In kind it is cell-based.
Description: as §2

Data set [17] has as its system Mycobacterium tub. H37Rv ATCC 9360. Kind of data set: Minimal inhibitory concentration. In kind it is cell-based.
Description: as §2

For data set [18], the system named is Staphylococcus aureus Tour. The data set is described as follows: Minimal inhibitory concentration. The data set is classed as cell-based.
Description: as §2

In data set [19] the test system is Streptococcus hemolyticus C203. The data set is described as follows: Minimal inhibitory concentration. The data set is classed as cell-based.
Description: as §2

The subject of data set [20] is Streptococcus mutans ATCC 25175. Kind of data set: Minimal inhibitory concentration. In kind it is cell-based.
Description: as §2

For a further data set, the system named is mice. The data set is described as follows: Toxicity, LD50 i.p. in mice.
Setting [21] is: Staphylococcus aureus, ATCC6538, read-out: M.I.C. of other antibiotics.

For `CC[C@H](C)[C@H](N)C1=N[C@H](C(=O)N[C@@H](CC(C)C)C(=O)N[C@H](CCC(=O)O)C(=O)N[C@H](C(=O)N[C@H]2CCCCNC(=O)[C@H](CC(N)=O)NC(=O)[C@@H](CC(=O)O)NC(=O)[C@H](Cc3cnc[nH]3)NC(=O)[C@@H](Cc3ccccc3)NC(=O)[C@H]([C@@H](C)CC)NC(=O)[C@@H](CCCN)NC2=O)[C@@H](C)CC)CS1` [bacitracin, reference compound] (HELM PEPTIDE1{[CC[C@H](C)[C@H](N)C1=N[C@H](C(=O)[*:2])CS1].L.[dE].I.K.[NCCC[C@@H](N[*:1])C(=O)[*:2]].I.[dF].H.[dD].N}$PEPTIDE1,PEPTIDE1,5:R3-11:R2$$$V2.0), the “M.I.C. of other antibiotics” value in data set [1] is > 100 µg/mL.
With `O=C(Cc1cccs1)N[C@@H]1C(=O)N2C(C(=O)[O-])=C(C[n+]3ccccc3)CS[C@H]12` [cephaloridine, reference compound], the MIC in data set [2] (setting [21]) was > 100 µg/mL.
With `O=C(N[C@H](CO)[C@H](O)c1ccc([N+](=O)[O-])cc1)C(Cl)Cl` [chloramphenicol, reference compound], in [3] (setting [21]), the MIC is > 100 µg/mL.
As to `CC[C@H]1OC(=O)[C@H](C)[C@@H](O[C@H]2C[C@@](C)(OC)[C@@H](O)[C@H](C)O2)[C@H](C)[C@@H](O[C@@H]2O[C@H](C)C[C@H](N(C)C)[C@H]2O)[C@](C)(O)C[C@@H](C)C(=O)[C@H](C)[C@@H](O)[C@]1(C)O` [erythromycin, reference compound], the MIC in data set [4] (setting [21]) was > 100 µg/mL.
With `CO[C@@H]1[C@@H](OC(N)=O)[C@@H](O)[C@H](Oc2ccc3c(O)c(NC(=O)c4ccc(O)c(CC=C(C)C)c4)c(=O)oc3c2C)OC1(C)C` [novobiocin, reference compound], the MIC in data set [5] (setting [21]) was > 100 µg/mL.
Regarding `CO[C@H]1C[C@H](O[C@H]2[C@H](C)[C@@H](O[C@@H]3O[C@H](C)C[C@H](N(C)C)[C@H]3O)[C@@H](C)C[C@@]3(CO3)C(=O)[C@H](C)[C@@H](O)[C@@H](C)[C@@H](C)OC(=O)[C@@H]2C)O[C@@H](C)[C@@H]1O` [oleandomycin, reference compound], the MIC in [6] (setting [21]) worked out at 50 µg/mL (≈ 72.7 µM).
On to `CC1(C)S[C@@H]2[C@H](NC(=O)Cc3ccccc3)C(=O)N2[C@H]1C(=O)O` [penicillin, reference compound], for which the MIC in data set [7] (setting [21]) is > 100 µg/mL.
In the case of `[H]/N=C(/N)N[C@H]1[C@H](O)[C@@H](O)[C@H](O[C@@H]2O[C@@H](C)[C@](O)(C=O)[C@H]2O[C@@H]2O[C@@H](CO)[C@H](O)[C@@H](O)[C@@H]2NC)[C@@H](N/C(N)=N\[H])[C@@H]1O` [streptomycin, reference compound], the MIC in [8] (setting [21]) is > 100 µg/mL.
As to `CN(C)[C@@H]1C(O)=C(C(N)=O)C(=O)[C@@]2(O)C(O)=C3C(=O)c4c(O)cccc4[C@@](C)(O)[C@H]3C[C@@H]12` [tetracycline, reference compound], in data set [9] (setting [21]), the MIC is > 100 µg/mL.
Regarding lipiarmycin, the M.I.C. of lipiarmycin in data set [10] stood at 2 µg/mL; in data set [3] (S. aureus ATCC 6538 resistant to chloramphenicol) it was 2 µg/mL; in data set [1] it was 5 µg/mL; in data set [9] (S. aureus ATCC 6538 resistant to tetracycline), 5 µg/mL; in data set [5] (S. aureus ATCC 6538 resistant to novobiocin), 2 µg/mL; in data set [8] (S. aureus ATCC 6538 resistant to streptomycin), 5 µg/mL. Moreover, the M.I.C. of lipiarmycin in data set [11] was found to be 5 µg/mL; in [7] (S. aureus ATCC 6538 resistant to penicillin), 2 µg/mL; in data set [2] (S. aureus ATCC 6538 resistant to cephaloridine), 5 µg/mL; in data set [6] (S. aureus ATCC 6538 resistant to oleandomycin), 5 µg/mL; in [4] (S. aureus ATCC 6538 resistant to erythromycin), 5 µg/mL. In [12], this compound came in with a pKa of 6.8. Besides, in data set [13], the Solubility result was “Sparingly soluble to insoluble”. Further, the “MINIMAL INHIBITORY CONCENTRATION” value came to 50 µg/mL in data set [14]; 50 µg/mL in data set [15]; 2 µg/mL in data set [16]; 50 µg/mL in [17]; 10 µg/mL in data set [18] (Staphylococcus aureus Tour with 10 percent bovine serum); 2 µg/mL in data set [18] (Staphylococcus aureus Tour, without serum). Moreover, the “MINIMAL INHIBITORY CONCENTRATION” value in [19] stood at 10 µg/mL; in data set [20], 0.5 µg/mL. The LD50 result in the data set with mice is “about 500 mg./kg”.
With neomycin [reference compound], the “M.I.C. of other antibiotics” value in [10] was > 100 µg/mL.
For streptothricin [reference compound], the “M.I.C. of other antibiotics” value in data set [11] is > 100 µg/mL.

For the origin of these results see patent US3978211A, “Lipiarmycin and its preparation” (Gruppo Lepetit S.p.A., priority 1973, dated 1976).
